Results as given in ChEMBL document CHEMBL1154761 (J Med Chem, 2010).
Each block holds one compound with its values, some of them ahead of it.

Assays:
Beta-secretase 1 [1] = target: T1, Beta-secretase 1 (Homo sapiens, UniProt P56817)
Description: Inhibition of BACE1 mediated human Swedish amyloid precursor protein peptide hydrolysis by HTRF assay

Beta-secretase 1 [2] = target: T1, Beta-secretase 1; assay: Inhibition of BACE1 mediated human Swedish amyloid precursor protein peptide hydrolysis at 500 uM by HTRF assay
Cathepsin D [3] = target: T2, Cathepsin D (Homo sapiens, UniProt P07339); assay: Inhibition of human cathepsin D preincubated for 30 mins
T2 sequence (P07339 65-162 limits assumed): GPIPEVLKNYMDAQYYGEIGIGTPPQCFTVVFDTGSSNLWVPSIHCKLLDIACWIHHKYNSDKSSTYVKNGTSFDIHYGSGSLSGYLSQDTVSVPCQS
T2 sequence (P07339 169-412 limits assumed): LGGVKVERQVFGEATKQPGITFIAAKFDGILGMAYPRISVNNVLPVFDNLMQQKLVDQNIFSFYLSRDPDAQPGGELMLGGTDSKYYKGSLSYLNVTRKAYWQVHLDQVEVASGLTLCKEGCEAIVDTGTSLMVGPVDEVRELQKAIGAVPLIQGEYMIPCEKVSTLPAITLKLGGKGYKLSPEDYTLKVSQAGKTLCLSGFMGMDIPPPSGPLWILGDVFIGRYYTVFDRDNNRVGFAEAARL

[4] = Ratio of drug level in brain to plasma of rat at 10 mg/kg, po; assay type: ADME, organism-based; set-up: dose 10 mg/kg, route oral
in vivo = details: rat, plasma, po, 10 mg/kg
Beta-secretase 1 [5] = target: T1, Beta-secretase 1; assay: Inhibition of BACE1 mediated hydrolysis of human amyloid precursor protein with Swedish and London mutation in HEK293 cells by ELISA; assay type: cell-based
Beta-secretase 1 [6] = target: T1, Beta-secretase 1; assay: Inhibition of BACE1 by fragment-based NMR screening method
Cathepsin D [7] = target: T2, Cathepsin D; assay: Inhibition of human cathepsin D at 50 uM preincubated for 30 mins
[8] = Dissociation constant, pKa of the compound; assay type: physicochemical

T1 sequence (P56817 whole entry): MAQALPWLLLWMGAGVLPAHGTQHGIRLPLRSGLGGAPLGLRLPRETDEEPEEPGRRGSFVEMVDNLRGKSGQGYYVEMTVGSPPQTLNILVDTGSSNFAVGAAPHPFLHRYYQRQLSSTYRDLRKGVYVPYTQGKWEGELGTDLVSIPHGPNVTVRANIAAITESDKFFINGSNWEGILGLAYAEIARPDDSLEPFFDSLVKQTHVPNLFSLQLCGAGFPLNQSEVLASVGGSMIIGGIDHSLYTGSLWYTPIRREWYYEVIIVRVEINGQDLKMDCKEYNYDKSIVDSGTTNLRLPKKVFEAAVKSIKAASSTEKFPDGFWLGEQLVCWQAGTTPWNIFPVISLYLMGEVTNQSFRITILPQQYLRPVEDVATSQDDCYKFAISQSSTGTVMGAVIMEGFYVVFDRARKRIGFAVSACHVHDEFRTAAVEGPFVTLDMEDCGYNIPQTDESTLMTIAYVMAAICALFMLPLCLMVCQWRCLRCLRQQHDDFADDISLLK

Structure (SMILES): CCCCNC(=O)NCc1ccc(CN2C(=N)NC(CCC3CCCCC3)(CC3CCCCC3)C2=O)cc1 (stereo not drawn)
- IC50 (Beta-secretase 1 [1]): 0.35 µM

Structure (SMILES): CC1(C)NC(=N)N(Cc2cccc(Cl)c2)C1=O
- inhibition (Beta-secretase 1 [2]): 19%
- Kd (Beta-secretase 1 [6]): 200 µM

Structure (SMILES): CN1C(=O)C(c2ccccc2)(c2ccccc2)N=C1N
- inhibition (Cathepsin D [7]): 38%
- Kp [4]: 1.8
- AUC (in vivo): 5 µM·h

Structure (SMILES): CC(C)CC1(C)C(=O)NC(=N)N1Cc1cccc(Cl)c1 (stereo not drawn)
- inhibition (Beta-secretase 1 [2]): 6%

Structure (SMILES): CCCCNC(=O)NCc1ccc(CN2C(=N)NC(C)(CC(C)C)C2=O)cc1 (stereo not drawn)
- IC50 (Beta-secretase 1 [1]): 78 µM

Structure (SMILES): CC(C)CC1(C)NC(=N)N(Cc2cccc(Cl)c2)C1=O (stereo not drawn)
- inhibition (Beta-secretase 1 [2]): 55%
- Kd (Beta-secretase 1 [6]): 123 µM
- pKa [8]: 7.2

Now from value to compound:

- IC50 (Beta-secretase 1 [1]): 5 µM
Structure (SMILES): CCCCNC(=O)NCc1ccc(CN2C(=N)NC(C)(CC3CCCCC3)C2=O)cc1 (racemic)

- inhibition (Beta-secretase 1 [2]): 64%
Structure (SMILES): CCCCNC(=O)NCc1ccc(CN2C(=N)NC(C)(Cc3ccccc3)C2=O)cc1 (racemic)

- IC50 (Beta-secretase 1 [1]): 0.605 µM
- Ki (Cathepsin D [3]): 0.74 µM
- Kp [4]: 0.9
- AUC (in vivo): 1 µM·h
- IC50 (Beta-secretase 1 [5]): 2.6 µM
Structure (SMILES): CN1C(=N)N[C@](CCC2CCCCC2)(CC2CCCCC2)C1=O

- IC50 (Beta-secretase 1 [1]): 7 µM
Structure (SMILES): CC(C)CC1(C)NC(=N)N(Cc2ccc(CNC(=O)Nc3ccc(C#N)cc3)cc2)C1=O (racemic)

- IC50 (Beta-secretase 1 [1]): 50 µM
Structure (SMILES): CCCCNC(=O)NCc1ccc(CN2C(=N)NC(CCc3ccccc3)(CC(C)C)C2=O)cc1 (racemic)

- IC50 (Beta-secretase 1 [1]): 2.1 µM
Structure (SMILES): CCCCNC(=O)NCc1ccc(CN2C(=N)NC(CC3CCCCC3)(CC3CCCCC3)C2=O)cc1

- pKa [8]: 4.4
Structure (SMILES): CC1(C)C(=O)NC(=N)N1CCc1cccc(Cl)c1

- IC50 (Beta-secretase 1 [1]): 3 µM
Structure (SMILES): CCCCNC(=O)NCc1ccc(CN2C(=N)NC(CCC3CCCCC3)(CC(C)C)C2=O)cc1 (racemic)
